The values below come from patent EP1215212A2, “Dihydro derivatives of LL-E33288 antibiotics” (priority 1987, dated 1988).

Where only a bound is given, the exact number is not on record here.

What all share (format): cell-based
For experiment [1], the system named is Acinetobacter sp. In words: Agar dilution MIC (Table II). The conditions noted are these: inoculum 1 to 5 x 10^4 CFU, about 18 hours, 35°C. The protocol: (§1) The in vitro antibacterial activity of dihydro LL-E33288gamma l-I was determined against a spectrum of gram-positive and gram-negative bacteria by a standard agar dilution method. Mueller-Hinton agar containing two-fold decreasing concentrations of the antibiotics was poured into petri plates. The agar surfaces were inoculated with 1 to 5 x 10^4 colony forming units of bacteria by means of a Steers replicating device.
A general note: Agar dilution tests growth on a series of plates holding different concentrations.

Experiment [2] concerns Providencia stuartii. The experiment is described as follows: Agar dilution MIC (Table II). To be noted: Providencia stuartii CMC 83-82; inoculum 1 to 5 x 10^4 CFU; about 18 hours, 35°C. As to the method:
as §1

For experiment [3], the system named is Enterobacter aerogenes. In words: Agar dilution MIC (Table II). To be noted: Enterobacter aerogenes IO 83-44; inoculum 1 to 5 x 10^4 CFU; about 18 hours, 35°C. As to the method:
as §1

The subject of experiment [4] is Staphylococcus epidermidis. In words: Agar dilution MIC (Table II). The conditions noted are these: inoculum 1 to 5 x 10^4 CFU, about 18 hours, 35°C. The protocol:
as §1

Experiment [5] deals with Pseudomonas aeruginosa. In words: Agar dilution MIC (Table II). The conditions noted are these: inoculum 1 to 5 x 10^4 CFU, about 18 hours, 35°C. The protocol:
as §1

In experiment [6] the test system is Citrobacter diversus. In words: Agar dilution MIC (Table II). To be noted: Citrobacter diversus K-82-24; inoculum 1 to 5 x 10^4 CFU; about 18 hours, 35°C. As to the method: as §1
The subject of experiment [7] is Streptococcus faecalis. The experiment is described as follows: Agar dilution MIC (Table II). The conditions noted are these: inoculum 1 to 5 x 10^4 CFU, about 18 hours, 35°C. As to the method:
as §1

The subject of experiment [8] is Morganella morganii. The experiment is described as follows: Agar dilution MIC (Table II). To be noted: Morganella morganii IO 83-18; inoculum 1 to 5 x 10^4 CFU; about 18 hours, 35°C. The protocol: as §1
For experiment [9], the system named is Serratia marcescens. In words: Agar dilution MIC (Table II). To be noted: inoculum 1 to 5 x 10^4 CFU, about 18 hours, 35°C. As to the method: as §1
The subject of experiment [10] is Enterobacter cloacae. The experiment is described as follows: Agar dilution MIC (Table II). The conditions noted are these: Enterobacter cloacae CMC 84-4; inoculum 1 to 5 x 10^4 CFU; about 18 hours, 35°C. The protocol: as §1
Experiment [11] concerns Klebsiella pneumoniae. The experiment is described as follows: Agar dilution MIC (Table II). The conditions noted are these: inoculum 1 to 5 x 10^4 CFU, about 18 hours, 35°C. As to the method: as §1
Experiment [12] concerns Staphylococcus aureus. In words: Agar dilution MIC (Table II). To be noted: inoculum 1 to 5 x 10^4 CFU, about 18 hours, 35°C. The protocol: as §1
Experiment [13] deals with Citrobacter freundii. In words: Agar dilution MIC (Table II). To be noted: Citrobacter freundii IO 83-13; inoculum 1 to 5 x 10^4 CFU; about 18 hours, 35°C. As to the method: as §1
The test system of experiment [14] is Escherichia coli. In words: Agar dilution MIC (Table II). To be noted: inoculum 1 to 5 x 10^4 CFU, about 18 hours, 35°C. As to the method:
as §1

The test system of experiment [15] is E. coli-lambda lysogen. In words: Biochemical Induction Assay (BIA), modified. To be noted: ability to directly or indirectly initiate DNA damage. The text has this: The LL-E33288 antibiotics are active against gram-positive and gram-negative bacteria. Each of the components were also found to be active in a modification of the Biochemical Induction Assay [Elespuru, R. and Yarmolinsky, M., Environmental Mutagenesis, 1, 65-78 […]], a test which specifically measures the ability of an agent to directly or indirectly initiate DNA damage. In this assay, both LL-E33288γ1-I and LL-E33288δ1-I were active at concentrations lower than 1x10^-6 mcg/ml.
This pseudoaglycone is also active as an antitumor agent as determined in the Biochemical Induction Assay (BIA), a bacterial assay system which specifically measures the ability of an agent to directly or indirectly initiate DNA damage. The indicator organism for this test is an E. coli-lambda lysogen, genetically constructed such that a DNA damaging event results in the expression of the gene for the enzyme β-galactosidase. This enzyme can be determined qualitatively or quantitatively by biochemical assay as an indication that DNA damage has occurred.
A modified version of the quantitative liquid BIA disclosed by Elespuru, R. and Yarmolinsky, M., Environmental Mutagenesis, 1, 65 (1979) was used to evaluate these compounds.

For “Dihydro-LL-E33288γ1-I [Dihydro-LL-E33288gamma1-I]”, the “Minimal Inhibitory Concentration” value in [1] (Acinetobacter sp CMC 83-89) was 2 µg/mL; in experiment [1] (Acinetobacter sp IO 83-49), greater than 2 µg/mL; in experiment [2], 2 µg/mL; in [3] it was 2 µg/mL; in experiment [4] (Staphylococcus epidermidis ATCC 12228), 0.015 µg/mL; in experiment [4] (Staphylococcus epidermidis CMC 83-133) it was 0.015 µg/mL. Moreover, the “Minimal Inhibitory Concentration” value worked out at 2 µg/mL in [5] (Pseudomonas aeruginosa 12-4-4(MP)); 2 µg/mL in [5] (Pseudomonas aeruginosa ATCC 27853); 2 µg/mL in [6]; 0.001 µg/mL in experiment [7] (Streptococcus faecalis ATCC 29212); 0.015 µg/mL in experiment [7] (Streptococcus faecalis CMC 83-53); 0.015 µg/mL in experiment [7] (Streptococcus faecalis IO 83-28). The “Minimal Inhibitory Concentration” value in [8] was 1 µg/mL; in [9] (Serratia marcescens CMC 83-27), 2 µg/mL; in experiment [9] (Serratia marcescens F-35(MP)) it was 2 µg/mL; in experiment [10] it was 2 µg/mL; in experiment [11] (Klebsiella pneumoniae AD(MP)) it was 1 µg/mL; in experiment [11] (Klebsiella pneumoniae CMC 84-5) it was greater than 2 µg/mL. Besides, the “Minimal Inhibitory Concentration” value in [12] (Staphylococcus aureus ATCC 25923) amounted to 0.06 µg/mL; in experiment [12] (Staphylococcus aureus SSC 82-20), 0.06 µg/mL; in experiment [12] (Staphylococcus aureus SSC 82-21), 0.004 µg/mL; in experiment [12] (Staphylococcus aureus SSC 82-23) it was 0.008 µg/mL; in [12] (Staphylococcus aureus SSC 82-24), 0.002 µg/mL; in experiment [12] (Staphylococcus aureus SSC 82-54), 0.06 µg/mL. The “Minimal Inhibitory Concentration” value in experiment [12] (Staphylococcus aureus Smith(MP)) came to 0.004 µg/mL; in experiment [13], 2 µg/mL; in experiment [14] (Escherichia coli ATCC 25922), 1 µg/mL; in experiment [14] (Escherichia coli CMC 84-11) it was 2 µg/mL; in experiment [14] (Escherichia coli No. 311(MP)), 2 µg/mL.
For `CCN[C@H]1CO[C@@H](O[C@H]2[C@H](O[C@H]3C#CC=CC#C[C@@]4(O)CC(=O)C(NC(=O)OC)=C3/C4=C\CSSSC)O[C@H](C)[C@@H](NO[C@H]3C[C@H](O)[C@H](SC(=O)c4c(C)c(I)c(O[C@@H]5O[C@@H](C)[C@H](O)[C@@H](OC)[C@H]5O)c(OC)c4OC)[C@@H](C)O3)[C@@H]2O)C[C@@H]1OC` (stereo in doubt) [LL-E33288γ1-I], the active at concentrations entry in experiment [15] is “lower than 1x10^-6 mcg/ml”.
